# Entries after “also recorded” stand apart in the source; their conditions may differ.
# Experiments:
# Format in all cases: physicochemical
# [1] = Crystal form change on heating in the DSC test
# [2] = Hygroscopicity by dynamic vapor sorption (DVS) at 25°C
# [3] = Pressure stability at 1000 Mpa for 5 minutes (HPLC purity, crystal form)
# Source text: [table] […] Table E-6: Results of Pressure Stability Determination
# [4] = Solid-state stability under long-term and accelerated conditions (HPLC purity, crystal form); details: for Purity (% Area) / purity decrease: 10 days
# Source text: [table] […] Table E-3: Results of Solid-State Stability Determination
# [5] = Equilibrium solubility, 24 hours at 37°C in 4 media, with XRPD of residual solid; details: for Crystal Form: XRPD
# Procedure: After 24 hours, samples were taken and centrifuged for separation. The obtained solids were tested by XRPD, and the supernatants were filtered for solubility testing.
# [6] = High-humidity stability at 90% RH (HPLC purity, crystal form); details: for Purity (% Area) / purity decrease: 90% RH
# Source text: [table] […] Table E-5: Results of High-Humidity Stability Determination
# [7] = Suspension competition test of Crystal Form A and Crystal Form G; details: Crystal Form A and Crystal Form G in EtOH and a mixture of MeOH and water, room temperature and 50°C
# [8] = Crystal form stability on drying or sealed storage
# Source text: The 4 metastable crystal forms described in Example 4 had lower crystal form stability than each crystal form described in Example 3.
# [9] = High-temperature stability at 60°C (HPLC purity, crystal form); details: for Purity (% Area) / purity decrease: 60°C
# Source text: [table] […] Table E-4: Results of High-Temperature Stability Determination
# [10] = heated to 120 °C for 10 minutes
compound,measurement,setting,value
"O=C(O)c1ccc2nc(CN3CCC(c4cccc(OCc5ccc(C6COC6)cc5F)n4)CC3)n(C[C@@H]3CCO3)c2c1 [Crystal Form K, (S)-2-((4-(6-((2-fluoro-4-(oxetan-3-yl)benzyl)oxy)pyridin-2-yl)piperidin-1-yl)methyl)-1-(oxetan-2-ylmethyl)-1H-benzo[d]imidazole-6-carboxylic acid]",crystal form change on heating,[1]; heated to 110 °C for 10 minutes,transforms into an amorphous form
"O=C(O)c1ccc2nc(CN3CCC(c4cccc(OCc5ccc(C6COC6)cc5F)n4)CC3)n(C[C@@H]3CCO3)c2c1 [Crystal Form O, (S)-2-((4-(6-((2-fluoro-4-(oxetan-3-yl)benzyl)oxy)pyridin-2-yl)piperidin-1-yl)methyl)-1-(oxetan-2-ylmethyl)-1H-benzo[d]imidazole-6-carboxylic acid]",crystal form change on heating,[1]; [10],transforms into an amorphous form
"O=C(O)c1ccc2nc(CN3CCC(c4cccc(OCc5ccc(C6COC6)cc5F)n4)CC3)n(C[C@@H]3CCO3)c2c1 [Crystal Form E, (S)-2-((4-(6-((2-fluoro-4-(oxetan-3-yl)benzyl)oxy)pyridin-2-yl)piperidin-1-yl)methyl)-1-(oxetan-2-ylmethyl)-1H-benzo[d]imidazole-6-carboxylic acid]",crystal form change on heating,[1]; [10],converts into an amorphous form
"O=C(O)c1ccc2nc(CN3CCC(c4cccc(OCc5ccc(C6COC6)cc5F)n4)CC3)n(C[C@@H]3CCO3)c2c1 [Crystal Form G, (S)-2-((4-(6-((2-fluoro-4-(oxetan-3-yl)benzyl)oxy)pyridin-2-yl)piperidin-1-yl)methyl)-1-(oxetan-2-ylmethyl)-1H-benzo[d]imidazole-6-carboxylic acid]",Sample Weight Change at 80% RH (%),[2],0.73%
same,Purity (% Area),"[3]; 1000 Mpa, 5 min",97.65 % Area
same,purity decrease,"[3]; 1000 Mpa, 5 min",about 0.2%
same,Initial Purity (% Area),"[3]; initial, before pressing",97.81 % Area
same,Purity (% Area),[4]; 25°C/60%RH,97.37 % Area
same,Purity (% Area),[4]; 40°C/75%RH,97.43 % Area
same,purity decrease,[4]; accelerated conditions (40°C/75% RH),about 0.4%
same,crystal form change,"[4]; before and after testing, long-term and accelerated conditions",no crystal form change was observed
same,Initial Purity (% Area),"[4]; initial, before storage",97.81 % Area
same,purity decrease,[4]; long-term conditions (25°C/60% RH),about 0.4%
same,Whether the Crystal Form Changed,[5]; 24 h in FaSSGF,YES
same,Solubility after 24 h,[5]; FaSSGF,<10 µg/mL
same,Solubility after 24 h,[5]; FaSSIF,80 µg/mL
same,Solubility after 24 h,[5]; FeSSIF,270 µg/mL
same,Crystal Form,[5]; solid after 24 h in FaSSGF,a hydrochloride salt was formed
same,Crystal Form,[5]; solid after 24 h in FaSSIF,Crystal Form G
same,Crystal Form,[5]; solid after 24 h in FeSSIF,Crystal Form G
same,Crystal Form,[5]; solid after 24 h in H2O,Crystal Form G
same,Purity (% Area),[6]; 1 Day,97.67 % Area
same,purity decrease,[6]; 1 day,about 0.1%
same,Purity (% Area),[6]; 10 days,96.53 % Area
same,purity decrease,[6]; 10 days,about 1.3%
same,Initial Purity (% Area),"[6]; initial, before storage",97.81 % Area
same,outcome of suspension competition test,[7],thermodynamically more stable
same,crystal form change after drying,[8]; dried at 50°C for 3 hours,no crystal form change is observed
same,Purity (% Area),[9]; 1 day,97.55 % Area
same,purity decrease,[9]; 1 day,about 0.3%
same,Purity (% Area),[9]; 10 days,96.63 % Area
same,purity decrease,[9]; 10 days,about 1.2%
same,Initial Purity (% Area),"[9]; initial, before storage",97.81 % Area
"O=C(O)c1ccc2nc(CN3CCC(c4cccc(OCc5ccc(C6COC6)cc5F)n4)CC3)n(C[C@@H]3CCO3)c2c1 [Crystal Form P, (S)-2-((4-(6-((2-fluoro-4-(oxetan-3-yl)benzyl)oxy)pyridin-2-yl)piperidin-1-yl)methyl)-1-(oxetan-2-ylmethyl)-1H-benzo[d]imidazole-6-carboxylic acid]",crystal form change after drying,[8]; dried at 50°C for 3.5 hours,transforms into an amorphous form; also recorded: convert into an amorphous form
"O=C(O)c1ccc2nc(CN3CCC(c4cccc(OCc5ccc(C6COC6)cc5F)n4)CC3)n(C[C@@H]3CCO3)c2c1 [Crystal Form N, (S)-2-((4-(6-((2-fluoro-4-(oxetan-3-yl)benzyl)oxy)pyridin-2-yl)piperidin-1-yl)methyl)-1-(oxetan-2-ylmethyl)-1H-benzo[d]imidazole-6-carboxylic acid]",crystal form change on heating,[1]; [10],transforms into an amorphous form
"O=C(O)c1ccc2nc(CN3CCC(c4cccc(OCc5ccc(C6COC6)cc5F)n4)CC3)n(C[C@@H]3CCO3)c2c1 [Crystal Form H, (S)-2-((4-(6-((2-fluoro-4-(oxetan-3-yl)benzyl)oxy)pyridin-2-yl)piperidin-1-yl)methyl)-1-(oxetan-2-ylmethyl)-1H-benzo[d]imidazole-6-carboxylic acid]",crystal form change after drying,[8]; dried at 50°C for 2 hours,transforms into a weakly crystalline state; also recorded: showed a weak crystalline state
"O=C(O)c1ccc2nc(CN3CCC(c4cccc(OCc5ccc(C6COC6)cc5F)n4)CC3)n(C[C@@H]3CCO3)c2c1 [Crystal Form J, (S)-2-((4-(6-((2-fluoro-4-(oxetan-3-yl)benzyl)oxy)pyridin-2-yl)piperidin-1-yl)methyl)-1-(oxetan-2-ylmethyl)-1H-benzo[d]imidazole-6-carboxylic acid]",crystal form change on heating,[1]; [10],transforms into an amorphous form
"O=C(O)c1ccc2nc(CN3CCC(c4cccc(OCc5ccc(C6COC6)cc5F)n4)CC3)n(C[C@@H]3CCO3)c2c1 [Crystal Form B, (S)-2-((4-(6-((2-fluoro-4-(oxetan-3-yl)benzyl)oxy)pyridin-2-yl)piperidin-1-yl)methyl)-1-(oxetan-2-ylmethyl)-1H-benzo[d]imidazole-6-carboxylic acid]",crystal form change after drying,[8]; dried at 50°C for 3 hours,transforms into an amorphous form; also recorded: convert into an amorphous form
"O=C(O)c1ccc2nc(CN3CCC(c4cccc(OCc5ccc(C6COC6)cc5F)n4)CC3)n(C[C@@H]3CCO3)c2c1 [Crystal Form M, (S)-2-((4-(6-((2-fluoro-4-(oxetan-3-yl)benzyl)oxy)pyridin-2-yl)piperidin-1-yl)methyl)-1-(oxetan-2-ylmethyl)-1H-benzo[d]imidazole-6-carboxylic acid]",crystal form change on heating,[1]; heated to 105 °C for 10 minutes,transforms into an amorphous form
"O=C(O)c1ccc2nc(CN3CCC(c4cccc(OCc5ccc(C6COC6)cc5F)n4)CC3)n(C[C@@H]3CCO3)c2c1 [Crystal Form Ix, (S)-2-((4-(6-((2-fluoro-4-(oxetan-3-yl)benzyl)oxy)pyridin-2-yl)piperidin-1-yl)methyl)-1-(oxetan-2-ylmethyl)-1H-benzo[d]imidazole-6-carboxylic acid]",crystal form change on heating,[1]; [10],converts into an amorphous form
"O=C(O)c1ccc2nc(CN3CCC(c4cccc(OCc5ccc(C6COC6)cc5F)n4)CC3)n(C[C@@H]3CCO3)c2c1 [Crystal Form C, (S)-2-((4-(6-((2-fluoro-4-(oxetan-3-yl)benzyl)oxy)pyridin-2-yl)piperidin-1-yl)methyl)-1-(oxetan-2-ylmethyl)-1H-benzo[d]imidazole-6-carboxylic acid]",crystal form change on heating,[1]; heated to 110°C for 5 minutes,transforms into an amorphous form
"O=C(O)c1ccc2nc(CN3CCC(c4cccc(OCc5ccc(C6COC6)cc5F)n4)CC3)n(C[C@@H]3CCO3)c2c1 [Crystal Form F, (S)-2-((4-(6-((2-fluoro-4-(oxetan-3-yl)benzyl)oxy)pyridin-2-yl)piperidin-1-yl)methyl)-1-(oxetan-2-ylmethyl)-1H-benzo[d]imidazole-6-carboxylic acid]",crystal form change after storage,[8]; sealed conditions at room temperature for 21 days,transforms into Crystal Form D; also recorded: transformed into stable Crystal Form D
"O=C(O)c1ccc2nc(CN3CCC(c4cccc(OCc5ccc(C6COC6)cc5F)n4)CC3)n(C[C@@H]3CCO3)c2c1 [Crystal Form L, (S)-2-((4-(6-((2-fluoro-4-(oxetan-3-yl)benzyl)oxy)pyridin-2-yl)piperidin-1-yl)methyl)-1-(oxetan-2-ylmethyl)-1H-benzo[d]imidazole-6-carboxylic acid]",crystal form change on heating,[1]; [10],transforms into an amorphous form
"O=C(O)c1ccc2nc(CN3CCC(c4cccc(OCc5ccc(C6COC6)cc5F)n4)CC3)n(C[C@@H]3CCO3)c2c1 [Crystal Form D, (S)-2-((4-(6-((2-fluoro-4-(oxetan-3-yl)benzyl)oxy)pyridin-2-yl)piperidin-1-yl)methyl)-1-(oxetan-2-ylmethyl)-1H-benzo[d]imidazole-6-carboxylic acid]",crystal form change on heating,[1]; [10],converts into an amorphous form
